settings: topical or ocular, 5 microgram per mL
Method: Liver microsomal stability assays were conducted at 1 mg per mL liver microsome protein with an NADPH-generating system in 2% NaHCO3 (2.2 mM NADPH, 25.6 mM glucose 6-phosphate, 6 units per mL glucose 6-phosphate dehydrogenase and 3.3 mM MgCl2). Test compounds were prepared as solutions in 20% acetonitrile-water and added to the assay mixture (final assay concentration 5 microgram per mL) and incubated at 37° C. Final concentration of acetonitrile in the assay should be <1%. Aliquots (50 μL) were taken out at times 0, 15, 30, 45, and 60 minutes, and diluted with ice cold acetonitrile (200 μL) to stop the reactions. Samples were centrifuged at 12000 RPM for 10 minutes to precipitate proteins. Supernatants were transferred to microcentrifuge tubes and stored for LC/MS/MS analysis of the degradation half-life of the test compounds.

Increase in the degradation half-life as compared to the non-isotopically enriched drug (clarithromycin), 10-400%:
[2H]C([2H])([2H])O[C@]1(C)C[C@@H](C)C(=O)[C@H](C)[C@@H](O)[C@](C)(O)[C@@H](CC)OC(=O)[C@H](C)[C@@H](O[C@H]2C[C@@](C)(OC)[C@@H](O)[C@H](C)O2)[C@H](C)[C@H]1O[C@@H]1O[C@H](C)C[C@H](N(C)C)[C@H]1O [Example 8, d3-6-O-Methyl-Erythromycin A (d3-clarithromycin)]
[2H]C([2H])([2H])O[C@]1(C)C[C@@H](C)C(=O)[C@H](C)[C@@H](O)[C@](C)(O)[C@@H](CC)OC(=O)[C@H](C)[C@@H](O[C@H]2C[C@@](C)(OC)[C@@H](O)[C@H](C)O2)[C@H](C)[C@H]1O[C@@H]1O[C@H](C)C[C@H](N(C)C([2H])([2H])[2H])[C@H]1O [Example 11, d6-6-O-Methyl-Erythromycin A (d6-clarithromycin)]
[2H]C([2H])([2H])N(C)[C@H]1C[C@@H](C)O[C@@H](O[C@@H]2[C@@H](C)[C@H](O[C@H]3C[C@@](C)(OC)[C@@H](O)[C@H](C)O3)[C@@H](C)C(=O)O[C@H](CC)[C@@](C)(O)[C@H](O)[C@@H](C)C(=O)[C@H](C)C[C@@]2(C)OC)[C@@H]1O [Example 12, d3-6-O-Methyl-Erythromycin A (d3-clarithromycin)]
